Consider 16 compounds from patent publication US10428024B2, “Piperidinyl derivatives” (MERCK PATENT GMBH, priority 2016, dated 2019).

One experiment addresses PDHK2 (Homo sapiens (Human), UniProt Q15119). In words: Biochemical activity testing of PDHK2: PDC inactivation assay. The settings on record: human rec PDHK2, 5 μM ATP, read-out: IC50 PDHK2 (enzyme assay). An excerpt: Biochemical Activity Testing of PDHK2: PDC Inactivation Assay
The biochemical activity assay for PDHK2 is based on the inactivation of PDC through phosphorylation by PDHK2. The assay is run in two steps: the enzymatic PDHK2 reaction in which isolated PDC is phosphorylated by PDHK2 with ATP as co-substrate and the PDC activity assay in which pyruvate and NAD are converted to acetyl-CoA and NADH. The PDC activity correlates to the increase in NADH and thereby is detectable directly via the increasing fluorescence signal (Exc 340 nm, Em 450 nm). Inhibition of PDHK2 results in a lower phosphorylation status and thereby a less decrease in activity of PDC and a stronger increase in NADH fluorescence signal.
The PDC inactivation assay is performed in Greiner 384-well microtiter plates and is used for high throughput screen. 4 μl of PDHK2 (human, rec, Carna Bioscience, 10 ng/μl-137 nM final concentration) and PDC (isolated from porcine heart, Sigma-Aldrich, 20 mU/ml final concentration) are incubated in the absence or presence of the test compound (10 dilution concentrations) for 30 min at room temperature in kinase buffer (15 mM potassium phosphate buffer, pH 7.0, 60 mM KCl, 1.5 mM DTT, 2.5 mM MgCl2, 0.0125% (w/v) BSA, 0.125% Pluronic F-68). The kinase reaction is started by the addition of 4 μl ATP substrate solution (fc 5 μM in kinase buffer). After 30 min incubation at 37° C. 40 μl of PDC reaction solution (100 mM Tris/HCl, pH 7.8, 0.5 mM EDTA, 1 mM MgCl2, 50 mM NaF, 0.25 mM Coenzyme A, 5 mM pyruvate, 1 mM NAD, 5 mM DTT, 1 mM thiamine pyrophosphate) is added. The first fluorescence measurement is performed on a Perkin Elmer Envision (Exc 340 nm, Em 450 nm). The reaction is incubated for 45 min at room temperature. Afterwards a second fluorescence measurement is performed and the PDC activity is calculated by the difference between both measurements. As full value for the PDHK2 assay the inhibitor-free PDHK2 reaction is used. The pharmacological zero value used is DCA (Sigma-Aldrich) in a final concentration of 3 mM. The inhibitory values (IC50) were determined using either the program Symyx Assay Explorer® or Condosseo® from GeneData.

For experiment [1], the system named is PDH-E1alpha (pSer300) in HEK293T cells. In words: Cellular immunofluorescence assay (Anti-PDH-E1alpha (pSer300)) in HEK293T cells. The experiment is classed as cell-based. As to conditions: Homo sapiens, HEK-293T, 5 hours incubation, read-out: IC50 (cell data). How it is done: Cellular Assay for Determination of Compound Activities
Compound activities were determined in a cellular immunofluorescence assay.
Human HEK293T cells were seeded into black 384-well plates with clear bottom and grown overnight.
Next day, test compounds were added to the wells and the plates incubated for 5 hours. Following this, cells were fixed with formaldehyde, permeabilised and blocked. The primary antibody, Anti-PDH-E1alpha (pSer300), AP1064 (Merck Millipore) was added and incubated overnight in the plate wells. Next, cells were washed and the secondary antibody, Alexa Fluor 488, goat anti-rabbit ab (A-11008, Invitrogen) was added together with Hoechst 33258 (H3569, Invitrogen) and incubated for 1 hour in the plate wells. Finally, cells were washed and the plates were measured on the laser scanning cytometer acumen hci (TTpLabtech).
The raw data were normalized against a pharmacological inhibitor control and dose response curves were generated by plotting the percent effect values using the software package Genedata screener (Genedata).

Another experiment addresses human PDHK2 (12-407) (Homo sapiens (Human), UniProt Q15119). In words: Isothermal titration calorimetry (ITC). The settings on record: 30° C., pH 7.5; read-out: Binding (ITC) KD. How it is done:
Isothermal Titration Calorimetry
ITC measurements were performed with a VP-ITC micro calorimeter (Microcal, LLC/GE Healthcare Bio-Sciences AB, Uppsala, Sweden). In general titrations were performed by titrating the protein (50 μM) to the test compound (5 μM) in 12 μl injections. All binding experiments were carried out at 30° C. In general the test compounds were diluted form DMSO stock solutions into the measurement buffer with a maximum final concentration of 1% DMSO. The measurement buffer was 20 mM HEPES, 135 mM KCl, 1 mM TCEP, 2 mM MgCl2, 15 mM NaH2PO4, pH 7.5. The human PDHK2 (12-407) was produced in E. coli as his-tagged protein and purified by affinity chromatography. The tag was removed by side specific proteolysis. Before titration the protein buffer was changed to the measurement buffer containing the same DMSO concentration as the test compound dilution. ITC data analysis was performed using Origin 7 calorimetry software from the same supplier. For most measurements a binding model of one binding site was assumed. According to the applied mathematical model it is possible to calculate the binding constant (KA), the observed binding enthalpy (ΔH^obs) as well as the stoichiometry (N) of the formed complex. Preceding analysis the raw data was corrected for the heats of dilution by extrapolating from the saturation value from the end of titration. In order to allow for direct comparison between the respective experimental series and protein preparations the protein concentration was corrected by referencing titrations to a well behaved standard inhibitor. The apparent stoichiometry values defined the fraction of binding competent protein and compensated for relative errors in protein concentration measurements. This corrected protein concentration was used to set up ITC experiment series with test compounds. Any deviations from ideal 1:1 stoichiometry observed here were attributed to errors in compound concentration. This nominal compound concentration was corrected as well to achieve 1:1 stoichiometry in the fit.
(ITC needs no label: the signal is the heat of the interaction.)

Turning to `Cc1ccc(N(C)C(=O)C2CCN(C(=O)[C@@](C)(O)C(F)(F)F)CC2)cc1` [Compound A1, 1-((R)-3,3,3-Trifluoro-2-hydroxy-2-methyl-propionyl)-piperidine-4-carboxylic Acid Methyl-p-Tolyl-Amide], the IC50 at PDHK2 turned out to be 1.1 µM; in experiment [1], 5.3 µM. The Kd on human PDHK2 (12-407) is 0.13 µM.
For `Cc1ccc(N(C)C(=O)C2CCN(C(=O)[C@@](C)(O)C(F)(F)F)CC2)c(F)c1` [Compound A2, 1-((R)-3,3,3-Trifluoro-2-hydroxy-2-methyl-propionyl)-piperidine-4-carboxylic acid (2-fluoro-4-methyl-phenyl)-methyl-amide], in that order: 0.2 µM, 2.6 µM and 0.09 µM.
With `CN(C(=O)C1CCN(C(=O)[C@@](C)(O)C(F)(F)F)CC1)c1ccc(C(F)(F)F)cc1Cl` [Compound A3, 1-((R)-3,3,3-Trifluoro-2-hydroxy-2-methyl-propionyl)-piperidine-4-carboxylic acid (2-chloro-4-trifluoromethyl-phenyl)-methyl-amide], the IC50 is 0.41 µM on PDHK2 and 2.1 µM in experiment [1]. Further, on human PDHK2 (12-407), the Kd worked out at 0.038 µM.
For the compound `CN(C(=O)C1CCN(C(=O)[C@@](C)(O)C(F)(F)F)CC1)c1ccc(Cl)cc1` [Compound A5, 1-((R)-3,3,3-Trifluoro-2-hydroxy-2-methyl-propionyl)-piperidine-4-carboxylic acid (4-chloro-phenyl)-methyl-amide], the IC50 came to 0.59 µM on PDHK2 and 2.8 µM in experiment [1]. The Kd at human PDHK2 (12-407) is 0.19 µM.
As for `Cc1ccc(N(C)C(=O)C2CCN(C(=O)[C@@](C)(O)C(F)(F)F)CC2C)cc1` (stereo partly drawn) [Compound A6, N,3-Dimethyl-N-(4-methylphenyl)-1-[(2R)-3,3,3-trifluoro-2-hydroxy-2-methylpropanoyl]piperidine-4-carboxamide], the IC50 at PDHK2 came out at 0.24 µM; in experiment [1], 0.2 µM.
`Cc1ccc(N(C)C(=O)[C@H]2CCN(C(=O)[C@@](C)(O)C(F)(F)F)C[C@H]2C)cc1` [Compound A7, (3S,4S)—N,3-Dimethyl-N-(4-methylphenyl)-1-[(2R)-3,3,3-trifluoro-2-hydroxy-2-methylpropanoyl]piperidine-4-carboxamide]: the IC50 on PDHK2 was 0.16 µM; in experiment [1], 0.019 µM. Moreover, the Kd at human PDHK2 (12-407) worked out at 0.031 µM.
Consider `CC1CN(C(=O)[C@@](C)(O)C(F)(F)F)CCC1C(=O)N(C)c1ccc(Cl)cc1` (stereo partly drawn) [Compound A9, N-(4-chlorophenyl)-N,3-dimethyl-1-[(2R)-3,3,3-trifluoro-2-hydroxy-2-methylpropanoyl]piperidine-4-carboxamide], for which the values for the 50% inhibitory concentration (IC50) (on PDHK2; in experiment [1]) were 0.27 µM and 0.23 µM, respectively. Besides, the Kd at human PDHK2 (12-407) came to 0.1 µM.
For `C[C@@H]1CN(C(=O)[C@@](C)(O)C(F)(F)F)CC[C@@H]1C(=O)N(C)c1ccc(Cl)cc1` [Compound A10, (3S,4S)—N-(4-chlorophenyl)-N,3-dimethyl-1-[(2R)-3,3,3-trifluoro-2-hydroxy-2-methylpropanoyl]piperidine-4-carboxamide], the IC50 on PDHK2 came to 0.11 µM; in experiment [1], 0.17 µM. The equilibrium dissociation constant (Kd) at human PDHK2 (12-407) is 0.026 µM.
Consider `Cc1ccc(N(C)C(=O)C2CCN(C(=O)[C@@](C)(O)C(F)(F)F)CC2C)c(F)c1` (stereo partly drawn) [Compound A12, N-(2-fluoro-4-methylphenyl)-N,3-dimethyl-1-[(2R)-3,3,3-trifluoro-2-hydroxy-2-methylpropanoyl]piperidine-4-carboxamide], for which the IC50 on PDHK2 was 0.2 µM; in experiment [1], 0.19 µM.
As to `Cc1ccc(N(C)C(=O)[C@H]2CCN(C(=O)[C@@](C)(O)C(F)(F)F)C[C@H]2C)c(F)c1` [Compound A13, (3S,4S)—N-(2-fluoro-4-methylphenyl)-N,3-dimethyl-1-[(2R)-3,3,3-trifluoro-2-hydroxy-2-methylpropanoyl]piperidine-4-carboxamide], the IC50 at PDHK2 was found to be 0.12 µM; in experiment [1], 0.07 µM. Also, the dissociation constant (Kd) at human PDHK2 (12-407) was found to be 0.014 µM.
On to `CN(C(=O)c1ccc(Cl)cc1)C1CCN(C(=O)[C@@](C)(O)C(F)(F)F)CC1` [Compound A16, 4-Chloro-N-methyl-N-{1-[(2R)-3,3,3-trifluoro-2-hydroxy-2-methylpropanoyl]piperidin-4-yl}benzamide], for which the IC50 on PDHK2 is 0.39 µM; in experiment [1] it was 1.5 µM. Moreover, the Kd on human PDHK2 (12-407) is 0.154 µM.
With `Cc1ccc(C(=O)N(C)C2CCN(C(=O)[C@@](C)(O)C(F)(F)F)CC2)cc1` [Compound A17, N,4-Dimethyl-N-{1-[(2R)-3,3,3-trifluoro-2-hydroxy-2-methylpropanoyl]piperidin-4-yl}benzamide], the IC50 amounted to 0.25 µM on PDHK2 and 1 µM in experiment [1]. Further, the Kd at human PDHK2 (12-407) is 0.11 µM.
For `Cc1ccc(C(=O)N(C)C2CCN(C(=O)[C@@](C)(O)C(F)(F)F)CC2)c(F)c1` [Compound A18, 2-Fluoro-4,N-dimethyl-N-{1-[(R)-3,3,3-trifluoro-2-hydroxy-2-methyl-propionyl]-piperidin-4-yl}-benzamide], in that order: 0.26 µM, 0.7 µM and 0.069 µM.
Take `CN(C(=O)c1ccc(C(F)(F)F)cc1Cl)C1CCN(C(=O)[C@@](C)(O)C(F)(F)F)CC1` [Compound A19, 2-Chloro-N-methyl-N-{1-[(2R)-3,3,3-trifluoro-2-hydroxy-2-methylpropanoyl]piperidin-4-yl}-4-(trifluoromethyl)benzamide]: the results for the IC50 (at PDHK2; in experiment [1]) were 0.55 µM and 0.52 µM, respectively. In addition, on human PDHK2 (12-407), the Kd turned out to be 0.053 µM.
As to `C[C@@H]1CN(C(=O)[C@@](C)(O)C(F)(F)F)CC[C@@H]1N(C)C(=O)c1ccc(Cl)cc1` [Compound A21, 4-Chloro-N-methyl-N-[(3R,4S)-3-methyl-1-[(2R)-3,3,3-trifluoro-2-hydroxy-2-methylpropanoyl]piperidin-4-yl]benzamide], the IC50 came to 0.26 µM at PDHK2 and 0.16 µM in experiment [1]. In addition, the dissociation constant (Kd) on human PDHK2 (12-407) came to 0.057 µM.
For the compound `Cc1ccc(C(=O)N(C)[C@H]2CCN(C(=O)[C@@](C)(O)C(F)(F)F)C[C@H]2C)cc1` [Compound A24, N,4-Dimethyl-N-[(3R,4S)-3-methyl-1-[(2R)-3,3,3-trifluoro-2-hydroxy-2-methylpropanoyl]piperidin-4-yl]benzamide], the figures for the IC50 (at PDHK2; in experiment [1]) were 0.13 µM and 0.29 µM, respectively. Besides, the Kd on human PDHK2 (12-407) is 0.016 µM.

For orientation: IC50 means the concentration at which inhibition is half-maximal. Usually Kd stands for the free concentration of one partner at which half of the binding sites on the other are occupied at equilibrium, for simple one-to-one binding.
